Experimental data: paper PMC7377239, “Cardiovascular Effects of Polychlorinated Biphenyls and Their Major Metabolites” (Environmental Health Perspectives, 2020)
Where two headings read alike, the source gives them in different places.

Test system: iCell endothelial cells (human iPSC-derived ECs)
Assay: Tube formation (tubulogenesis) assay in iCell endothelial cells, 18 h
Type: cell-based
Settings: for endo.tlps.18hr / endo.tta.18hr / endo.ttl.18hr / endo.mtl.18hr: 0.00 µM = 100.00
Outline: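 Tube formation was measured by calcein AM imaging after overnight compound exposure (37°C, 0.5% DMSO vehicle) of human iPSC-derived ECs, 7,500/well, on reduced-growth-factor Geltrex in starvation medium. Vehicle-normalized data fitted to four-parameter logistic; POD set at one vehicle SD; without response, 100 μM taken as NOAEL.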

Row | SMILES | endo.tlps.18hr (iPSC-EC, 0.01 µM) | endo.tlps.18hr (iPSC-EC, 0.10 µM) | endo.tta.18hr (iPSC-EC, 0.10 µM) | endo.tlps.18hr (iPSC-EC, 1.00 µM) | endo.tlps.18hr (iPSC-EC, 10.00 µM) | endo.tta.18hr (iPSC-EC, 10.00 µM) | endo.ttl.18hr (iPSC-EC, 10.00 µM) | endo.mtl.18hr (iPSC-EC, 100.00 µM) | endo.tlps.18hr (iPSC-EC, 100.00 µM) | endo.tta.18hr (iPSC-EC, 100.00 µM) | endo.ttl.18hr (iPSC-EC, 100.00 µM) | further results
1 | Clc1ccc(Cl)c(-c2c(Cl)ccc(Cl)c2Cl)c1Cl [(+)-PCB 136, 2,2′,3,3′,6,6′-hexachlorobiphenyl] | 101.49 | 128.16 | 137.60 | 103.43 | 157.84 | 197.38 | 177.54 | 68.39 | 43.04 | 78.91 | 80.17 | minimal effective concentration (Homo sapiens, Endothelial cell, endothelial cells (endo), tube formation mtl, 18 hr, read-out: POD endo.mtl.18hr): 63.5 µM; activity at 0.01 µM (Homo sapiens, Endothelial cell, iPSC-EC, 0.01 µM, 0.00 µM = 100.00, read-out: endo.mtl.18hr): 115%; activity at 0.01 µM (Homo sapiens, Endothelial cell, iPSC-EC, 0.01 µM, 0.00 µM = 100.00, read-out: endo.tta.18hr): 133%; activity at 0.01 µM (Homo sapiens, Endothelial cell, iPSC-EC, 0.01 µM, 0.00 µM = 100.00, read-out: endo.ttl.18hr): 135%; activity at 0.1 µM (Homo sapiens, Endothelial cell, iPSC-EC, 0.10 µM, 0.00 µM = 100.00, read-out: endo.mtl.18hr): 113%; activity at 0.1 µM (Homo sapiens, Endothelial cell, iPSC-EC, 0.10 µM, 0.00 µM = 100.00, read-out: endo.ttl.18hr): 132%; activity at 1 µM (Homo sapiens, Endothelial cell, iPSC-EC, 1.00 µM, 0.00 µM = 100.00, read-out: endo.mtl.18hr): 111%; activity at 1 µM (Homo sapiens, Endothelial cell, iPSC-EC, 1.00 µM, 0.00 µM = 100.00, read-out: endo.tta.18hr): 134%; activity at 1 µM (Homo sapiens, Endothelial cell, iPSC-EC, 1.00 µM, 0.00 µM = 100.00, read-out: endo.ttl.18hr): 139%; activity at 10 µM (Homo sapiens, Endothelial cell, iPSC-EC, 10.00 µM, 0.00 µM = 100.00, read-out: endo.mtl.18hr): 107%; minimal effective concentration (Homo sapiens, Endothelial cell, iPSC-EC, 100.00 = highest concentration tested, read-out: endo.mtl.18hr POD): 63.5 µM
2 | Clc1ccc(Cl)c(-c2c(Cl)ccc(Cl)c2Cl)c1Cl [(-)-PCB 136, 2,2′,3,3′,6,6′-hexachlorobiphenyl] | 139.80 | 103.80 | 103.27 | 134.14 | 133.39 | 144.91 | 148.25 | 40.89 | 14.11 | 1.36 | 1.73 | endo.mtl.18hr (iPSC-EC, 0.01 µM): 102.71; endo.tta.18hr (iPSC-EC, 0.01 µM): 138.00; endo.ttl.18hr (iPSC-EC, 0.01 µM): 138.93; endo.mtl.18hr (iPSC-EC, 0.10 µM): 112.13; endo.ttl.18hr (iPSC-EC, 0.10 µM): 116.27; endo.mtl.18hr (iPSC-EC, 1.00 µM): 102.66; endo.tta.18hr (iPSC-EC, 1.00 µM): 146.36; endo.ttl.18hr (iPSC-EC, 1.00 µM): 142.63; endo.mtl.18hr (iPSC-EC, 10.00 µM): 114.95
